Key:
[1] = Adhesion of fluorescent HA (HA-f) in colon tissue (IVIS image system); set-up: species or system SD-rat (Sprague-Dawley Rat); settings: 0.5% HA-f, 2 hours
Experimental: 1. 0.25 g high molecule weight sodium hyaluronate powder (HHA; Mw: 2 MDa; Freda) and 0.25 g low molecule weight sodium hyaluronate powder (LHA; Mw: 0.35 MDa; Freda) were added into 50 ml PBS buffer (Phosphate buffered saline) respectively to form 0.5% solution, and then stirred for 6 hours until the powder was totally dissolved. 0.25 g medium molecule weight sodium hyaluronate powder (MHA; Mw: 1 MDa; Freda) was added into 50 ml PBS buffer, and then stirred for 6 hours until the powder was totally dissolved and ready for use in the following steps.
2. Fluorescent HA (HA-f) was prepared by (1) 0.39 g MES free acid (2-(N-morpholino) ethanesulfonic acid, Calbiochem) and was dissolved in 100 ml dd water. (2) Solution A: 65 mg fluroresceinamine powder, (isomer I, Fluka) was dissolved in 9 ml 95% EtOH solution and then stirred for 10 minutes under a condition that light was prohibited. […] (8) The product after reaction was poured into a dialysis tubing (MW: 12000˜14000) in 5 L dd water as a dialysis solution and then stirred for 5 days at 4° C. under a condition that light was prohibited with dialysis solution being changed every 12 hours until the dialysis solution had no fluorescence. […]
7. All values are calculated as means of n observations. The histological index was analyzed by Student's t-test.

HCT15 cells = assay: In vitro cytotoxicity (MTT cell viability); assay type: cell-based, human; settings: 24 hours
Experimental: HCT15 cells were seeded at low density of 1×10^4 cells per well in 96 well-plates in medium containing DMEM/F12, 10% FBS, 1% sodium pyruvate, 1% Penicillin, Streptomycin, and Neomycin.
(§1) Drug effect on cellular viability was evaluated using an assay based on the cleavage of the yellow dye 3-(4, 5-dimethyl-2-thiazolyl)-2, 5-diphenyl-2H-tetrazolium bromide (MTT) to purple formazan crystals by dehydrogenase activity in mitochondria.
(§2) After drug treatment for 24 hours, medium was removed and cell layers were rinsed with medium following MTT diluted (0.5 mg/ml) in medium for 4 hours at 37° C. incubator (5% CO2).
(§3) The cells were then added with 100 μl/well DMSO and the optical density of the cellular homogenate was measured at 570 nm using ELISA reader.
(§4) The fraction of live cells was calculated by dividing the mean optical density obtained from treated cells by the mean optical density from untreated control cells.
(§5) After drug treatment for 24 hr, medium was removed and cell layers were rinsed with medium following MTT diluted (0.5 mg/ml) in medium for 4 hours at 37° C. incubator (5% CO2).

HT29 cells = assay: In vitro cytotoxicity (MTT cell viability); assay type: cell-based, human; settings: 24 hours
Experimental: HT29 cells were seeded at low density of 1×10^4 cells per well in 96 well-plates in medium containing high glucose DMEM, 10% FBS, 1% sodium pyruvate, 1% Penicillin, Streptomycin, and Neomycin.
as §1, §2, §3, §4, §5
Drug effect on cellular viability was evaluated using an assay based on the cleavage of the yellow dye 3-(4,5-dimethyl-2-thiazolyl)-2,5-diphenyl-2H-tetrazolium bromide (MTT) to purple formazan crystals by dehydrogenase activity in mitochondria.

[2] = Body weight in xenograft nude mice model; assay type: in vivo, BALB/c athymic (nu+/nu+) mice; settings: HT29 xenograft mice; 1.5 mg/kg Nimesulide or equivalent, tail vein, within 24 days
Experimental: 3. Tumor sizes and body weight were measured every 3 or 5 days for the duration of the experiment.
6. Mice were administered via tail vein injections at doses of Nimesulide (1.5 mg/kg), HA-Nimesulide (equivalent to 1.5 mg/kg of Nimesulide) or PBS respectively with an interval of 48 or 72 hours.
7. The tumor size and change in body weight of each mouse were recorded.

[3] = Lenalidomide series, 3.125-400 μM
[4] = Nimesulide series, 3.125-200 μM

sodium hyaluronate [1 MDa HA]
fluorescent index of adhesion ([1]; normal or injured colon tissues): higher than 2 MDa HA

sodium hyaluronate [350 KDa HA]
fluorescent index of adhesion ([1]; injured colon tissues, normal colon tissue defined as 1): obviously higher than HAs of the other two average molecular weights

Nc1cccc2c1CN(C1CCC(=O)NC1=O)C2=O (stereo not shown) [Lenalidomide]
cytotoxicity effect (cell viability, MTT) (HCT15 cells; [3]): almost the same in both cell lines | cytotoxicity effect (cell viability, MTT) (HT29 cells; [3]): almost the same in both cell lines

CS(=O)(=O)Nc1ccc([N+](=O)[O-])cc1Oc1ccccc1 [NiNO2, Nimesulide]
average body weight [2]: almost the same | cytotoxicity effect (cell viability, MTT) (HCT15 cells; [4]): generally better than modified production | cytotoxicity effect (cell viability, MTT) (HT29 cells; [4]): generally better than modified production
